Source: patent US9676822B2, “Oligopeptidic compounds and uses thereof” (APIM THERAPEUTICS AS, priority 2008, dated 2017)
Where a SMILES comes first, the peptide text is derived from it. Where no end group is shown, it is not given here. Side-chain parts run from the residue outwards. The star is where a group is joined. 5FAM = O=C1OC2(c3ccc(O)cc3Oc3cc(O)ccc32)c2ccc(C(=O)*)cc21; Ahx = NCCCCCC(=O)O

Key:
[1] = test system: cell membranes; type: cell-based
Procedure: The cells were treated with different concentrations (2, 4 and 8 μM) of peptide for 1 hour. Next, propidium iodide (PI) (50 μg/ml in PBS) was added, this will stain DNA if the cell membranes are permeable. Analysis were done within the next 10 minutes on a FACS Canto flow cytometer (BD-Life Science).

[2] = test system: EYFP and hABH21-10-EYFP expressing cells; assay: Flow analysis of the cell cycle after treatment with alkylating agents; type: cell-based
Source text: (§1) This is surprising since TMZ is believed to induce mainly O^6methyl-G which is repair by a direct repair mechanism by MGMT, not involving removal of any bases or strand breaks. […] The cells were still arrested in G2/M on day 3.

[3] = test system: EYFP and hABH21-10-EYFP expressing cells; assay: Comet assay for DNA repair intermediates after treatment with alkylating agents; type: cell-based
Source text: as §1

[4] = test system: HeLa cells; assay: MTT assay, peptide with cytostatic drugs (MMS, Cisplatin); type: cell-based
Procedure: The effects of the peptides in sensitising cells to the effects of cytostatic drugs were investigated using an MTT assay and a clonogenic assay (CFU assay) as described below.
HeLa cells were seeded into 96 well plates (6000 cells/well) and incubated for 3 hours. Various doses of MMS and Cisplatin were added to the wells. After 24 hours peptides were added to the cells in serum free media and incubated for 1 h. Fresh media with cytostatic drugs was added and the cells were harvested after additional 24, 48 and 72 hours. MTT was added to the cells (3-(4,5-Dimethylthiazol-2-yl)-2,5-diphenyltetrazolium bromide) and OD was measured at 570 nm [52], and the average from at least 6 wells was used to calculate cell survival. Data is presented as growth from one representative experiment and has been reproduced at least 2 times.

[5] = test system: HeLa cells
Procedure: HeLa cells were seeded into 96 well plates (6000 cells/well) and incubated for 3 hours. Various doses of peptides were added to the wells in presence (filled diamonds) or absence of serum (filled square) in the media. After 1 h equal volume media with 10% or 20% serum (to serum free media) were added to the wells. The cells were incubated for 48 hours before measurement of cell survival by the MTT assay.
Cytotoxicity of the peptides was investigated by an MTT assay as described below, using the peptides alone, in the absence of cytostatic drugs. Cytotoxicity data was also obtained from controls used in the cytostatic drug MTT assays (controls with peptide but without cytostatic drug), where the control peptides were followed for longer (4 days).
Cytotoxicity of the peptides after 48 hours are measured using the MTT assay. HeLa cells were seeded into 96 well plates (6000 cells/well) and incubated for 3 hours. Various doses of peptides were added to the wells in presence or absence of serum in the media. After 1 h equal volume media with 1× or 2× (to serum free media) were added and the cells incubated for 48 hours before addition of MTT (see above).

[6] = molecular target: T1, PCNA (Homo sapiens, UniProt P12004); assay: Co-localisation of EYFP fusion constructs with ECFP-PCNA by confocal imaging; type: cell-based; conditions: co-expressed with ECFP-PCNA
T1 construct: endogenous in cells; host or cells: HeLa cells stably expressing the EYFP fusion constructs; fractionated cell extracts
Procedure: Confocal imaging and FRET measurements Live HeLa cells were examined 16-24 hours after transient transfection (by Fugene 6 (Roche Inc.) according to the manufacturer's recommendations) of ECFP and EYFP fusion constructs. Fluorescent images were acquired using a Zeiss LSM 510 Meta laser scanning microscope equipped with a Plan-Apochromat 63×/1.4 oil immersion objective. Enhanced cyan fluorescent protein (ECFP) was excited at λ=458 nm and detected at λ=470-500 nm and enhanced yellow fluorescent protein (EYFP) was excited at λ=514 nm and detected at λ=530-600 nm, using consecutive scans. The thickness of the slice was 1 μm.
PCNA tagged with cyan fluorescent protein (ECFP) was co-expressed with various hABH2 deletion constructs fused with yellow fluorescent protein (EYFP). […] (FIG. 1).

[7] = molecular target: T1, PCNA; assay: FRET measurement with ECFP-PCNA; type: cell-based; conditions: positive FRET: distance between tags less than 100 Å
Source text: Fluorescent resonance energy transfer (FRET) occurs if the tags (EYFP and ECFP) are less than 100 Å (10 nm) apart. We detected FRET using the sensitised emission method, measuring acceptor (EYFP) emission upon donor (ECFP) excitation. We had FRET when the intensity of emitted light from EYFP after excitation of the ECFP fluorochrome was stronger than the light emitted by ECFP or EYFP-tagged proteins alone, after excitation with the EYFP and ECFP lasers respectively (bleed through), given by the equation: FRET=I2−I1 (ID2/ID1)−I3 (IA2/IA3) is >0. FRET was normalised for expression levels using the equation: NFRET=FRET/(I1×I3)^1/2. NFRET was calculated from mean intensities (I) within a region of interest (ROI) containing more than 25 pixels where all pixels had intensities below 250 and the average intensities were between 100 and 200 for both the donor and the acceptor constructs. Channel 1 (ECFP) and 3 (EYFP) were measured as described above for imaging, and channel 2 (FRET) was excitated with 2=458 nm and detected at λ=530-600 nm. ID1, D2, D3 and IA1, A2, A3 were determined for cells transfected with ECFP and EYFP constructs only, with same settings and same fluorescence intensities as co-transfected cells (I1 and I3). […]
To examine the degree of proximity of hABH2 and PCNA, fluorescence resonance energy transfer (FRET) was measured.

[8] = molecular target: T1, PCNA; assay: Co-immunoprecipitation and western analysis of endogenous PCNA; type: binding; conditions: anti-GFP immunoprecipitation, extracts of stably expressing cells
Procedure: HeLa (cervical cancer) and HaCaT (spontaneously transformed keratinocyte) cells stably expressing the constructs of interest were prepared by transfection (by Fugene 6) followed by cell sorting or cloning by dilution, and prolonged culturing in selective (using geneticin, G418, 400 μg/ml, Invitrogen) Dulbecco's modified Eagle's Medium high glucose 4.5 g/l (DMEM) (BioWhittaker®) supplemented with 10% Fetal Calf Serum (FCS), Amphotericin B (250 μg/ml, Sigma-Aldrich), gentamycin (100 μg/ml, Gibco) and glutamine (1 mM, BioWhittaker®). The cells were cultured at 37° C. in 5% carbon dioxide, humidified atmosphere. Fractionated cell extracts from HeLa were prepared by resuspending the cell pellets in 1× packed cell volume (PCV) in buffer I (10 mM Tris-HCl, pH 8.0 and 50 mM KCl) and 1×PCV in buffer II (10 mM Tris-HCl, 100 mM KCl, 20% glycerol, 0.5% Nonidet P-40, 10 mM EGTA, 10 mM MgCl2, 1 mM DTT, 1× Complete protease inhibitor (Roche), phosphates inhibitor cocktail (PIC I and PIC II, Sigma). Cells were incubated under constant shaking for 30 min at 4° C. The supernatant (soluble fraction) was harvested. The pellet (containing nuclei) was resuspended in 1×PCV of buffer III (10 mM Tris-HCl, pH 8.0 and 100 mM KCl) and 1×PCV buffer II, and briefly sonicated until all nuclei were disrupted. […]

[9] = test system: HeLa cells; assay: Cell survival assay (MTT) of HeLa cells expressing the construct, with alkylating agents; type: cell-based
Procedure: HeLa and HaCaT cells were seeded into 96 well plates (4000 cells/well) and incubated for 4 hours. […] The U2OS cells were exposed to MMS and TMZ only. The cells were exposed continuously until harvest. Cells were harvested every day for 4 days using the MTT assay (Mosmann, 1983). OD was measured at 570 nm, and the average from at least 6 wells was used to calculate cell survival. Data presented is growth from one representative experiment and has been reproduced at least 2 times. […] TZM is reported to be an O^6G methylating agent, while MMC causes interstrand cross links via N-alkylation of guanine in CpG's.

[10] = test system: HaCaT (spontaneously transformed keratinocyte) cells; assay: Cell survival assay of HaCaT cells stably expressing the construct; type: cell-based
Procedure: HeLa and HaCaT cells were seeded into 96 well plates (4000 cells/well) and incubated for 4 hours. […] The U2OS cells were exposed to MMS and TMZ only. The cells were exposed continuously until harvest. Cells were harvested every day for 4 days using the MTT assay (Mosmann, 1983). OD was measured at 570 nm, and the average from at least 6 wells was used to calculate cell survival. Data presented is growth from one representative experiment and has been reproduced at least 2 times.

[11] = HeLa cells expressing the construct

T1 sequence (P12004 whole entry, the tested form may be a part): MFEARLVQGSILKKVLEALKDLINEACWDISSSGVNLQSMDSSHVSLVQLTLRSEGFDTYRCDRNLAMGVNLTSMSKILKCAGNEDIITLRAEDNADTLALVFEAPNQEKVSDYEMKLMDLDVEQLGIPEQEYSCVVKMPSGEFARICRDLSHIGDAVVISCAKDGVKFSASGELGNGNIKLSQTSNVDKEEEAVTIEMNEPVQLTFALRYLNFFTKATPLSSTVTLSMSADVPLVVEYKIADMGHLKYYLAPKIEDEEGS

CC[C@H](C)[C@H](NC(=O)[C@H](CCCCN)NC(=O)[C@@H](NC(=O)[C@H](CCC(N)=O)NC(=O)[C@H](CCCNC(=N)N)NC(=O)[C@H](CC(C)C)NC(=O)[C@@H](NC(=O)[C@H](CCCCN)NC(=O)[C@H](CCCNC(=N)N)NC(=O)[C@H](CCCCN)NC(=O)[C@H](CCCCN)NC(=O)[C@H](CCCCN)NC(=O)[C@@H]1CCCN1C(=O)[C@H](CCC(N)=O)NC(=O)[C@H](C)NC(=O)CNC(=O)[C@H](CCCCN)NC(=O)[C@@H](NC(=O)[C@H](CC(C)C)NC(=O)[C@H](Cc1c[nH]c2ccccc12)NC(=O)[C@H](CCCNC(=N)N)NC(=O)[C@H](CC(=O)O)NC(=O)[C@@H](N)CCSC)C(C)C)C(C)C)[C@@H](C)CC)C(=O)N[C@@H](Cc1c[nH]c2ccccc12)C(=O)N[C@@H](Cc1ccccc1)C(=O)N[C@@H](CCC(N)=O)C(=O)N[C@@H](CC(N)=O)C(=O)N[C@@H](CCCNC(=N)N)C(=O)N[C@@H](CCCNC(=N)N)C(=O)N[C@@H](CCSC)C(=O)N[C@@H](CCCCN)C(=O)N[C@@H](Cc1c[nH]c2ccccc12)C(=O)N[C@@H](CCCCN)C(=O)N[C@@H](CCCCNC(=O)CCCCCNC(=O)c1ccc2c(c1)C(=O)OC21c2ccc(O)cc2Oc2cc(O)ccc21)C(=O)NCC(=O)O [MDR2] (H-MDRWLVKGAQPKKKRKVLRQIKIWFQNRRMKWKK([Ahx-5FAM])G-OH)
membrane toxicity [1]: membrane toxicity is low

COS(C)(=O)=O [MMS, methyl methanesulfonate]
cell cycle effect [2]: S-phase arrest | DNA repair intermediates (abasic sites, SSB, DSB) [3]: highest levels of DNA repair intermediates after 4 hours

Ac-MDRWLVKWKKKRKIRRRRRRRRRRR [MDR26-72-0]
activity in the MTT assay [4]: good activity

Cn1nnc2c(C(N)=O)ncn2c1=O [TMZ, 4-methyl-5-oxo-2,3,4,6,8-pentazabicyclo [4.3.0] nona-2,7,9-triene-9-carboxamide]
cell cycle effect [2]: arrested in G2/M up to day 3 | DNA repair intermediates (abasic sites, SSB, DSB) [3]: highest levels of repair intermediates after 4 hours

MDRWLVKRIWKKKRKIIRQIKIWFQNRRMKWKK-Ahx5-FAM)G (not fully specified (residue 33, C-terminus); printed as MDRWLVKRIWKKKRKIIRQIKIWFQNRRMKWKK-Ahx5-FAM)G; also: Ahx5-FAM label and G at C-terminal end, arrangement unclear) [MDR26-8]
Cytotoxicity [5]: +

hABH21-10-EYFP: the 10 N-terminal amino acids of hABH2 fused to EYFP, expressed in cells (MDRFLVKGAQ; not fully specified (C-terminus); also: fused to EYFP, expressed in cells)
co-localisation with PCNA in replication foci [6]: sufficient for co-localisation with PCNA | FRET with ECFP-PCNA [7]: positive FRET | pull-down of endogenous PCNA [8]: pulled down | sensitisation to MMS [9, 11]: sensitised HeLa cells to treatment with MMS | sensitisation to the other cytostatic agents (BCNU, TZM, MMC) [9, 11]: sensitised HeLa cells to all of the other cytostatic agents tested | growth rate of untreated cells ([9]; over-expression, no cytostatic agent): did not interfere with the growth rate of untreated cells | sensitivity to MMS and TMZ [10]: hypersensitive to MMS and TMZ

O=NN(CCCl)C(=O)NCCCl [BCNU, 1,3-Bis(2-chloroethyl)-1-nitrosourea]
cell cycle effect [2]: transient G2/M arrest on day 1 | DNA repair intermediates (abasic sites, SSB, DSB) [3]: very low levels of repair intermediates
